These compounds were tested against human Nav1.7 (Homo sapiens (Human), UniProt Q15858) (assay: FLIPR or FLIPR TETRA sodium dye assay with KCl and test article pre-incubation). Conditions: read-out: Nav1.7 Activity (μM) FLIPR assay IC50 (μM) ± SEM.
Chain of human Nav1.7 (Q15858 with tags, fused parts or gaps limits assumed): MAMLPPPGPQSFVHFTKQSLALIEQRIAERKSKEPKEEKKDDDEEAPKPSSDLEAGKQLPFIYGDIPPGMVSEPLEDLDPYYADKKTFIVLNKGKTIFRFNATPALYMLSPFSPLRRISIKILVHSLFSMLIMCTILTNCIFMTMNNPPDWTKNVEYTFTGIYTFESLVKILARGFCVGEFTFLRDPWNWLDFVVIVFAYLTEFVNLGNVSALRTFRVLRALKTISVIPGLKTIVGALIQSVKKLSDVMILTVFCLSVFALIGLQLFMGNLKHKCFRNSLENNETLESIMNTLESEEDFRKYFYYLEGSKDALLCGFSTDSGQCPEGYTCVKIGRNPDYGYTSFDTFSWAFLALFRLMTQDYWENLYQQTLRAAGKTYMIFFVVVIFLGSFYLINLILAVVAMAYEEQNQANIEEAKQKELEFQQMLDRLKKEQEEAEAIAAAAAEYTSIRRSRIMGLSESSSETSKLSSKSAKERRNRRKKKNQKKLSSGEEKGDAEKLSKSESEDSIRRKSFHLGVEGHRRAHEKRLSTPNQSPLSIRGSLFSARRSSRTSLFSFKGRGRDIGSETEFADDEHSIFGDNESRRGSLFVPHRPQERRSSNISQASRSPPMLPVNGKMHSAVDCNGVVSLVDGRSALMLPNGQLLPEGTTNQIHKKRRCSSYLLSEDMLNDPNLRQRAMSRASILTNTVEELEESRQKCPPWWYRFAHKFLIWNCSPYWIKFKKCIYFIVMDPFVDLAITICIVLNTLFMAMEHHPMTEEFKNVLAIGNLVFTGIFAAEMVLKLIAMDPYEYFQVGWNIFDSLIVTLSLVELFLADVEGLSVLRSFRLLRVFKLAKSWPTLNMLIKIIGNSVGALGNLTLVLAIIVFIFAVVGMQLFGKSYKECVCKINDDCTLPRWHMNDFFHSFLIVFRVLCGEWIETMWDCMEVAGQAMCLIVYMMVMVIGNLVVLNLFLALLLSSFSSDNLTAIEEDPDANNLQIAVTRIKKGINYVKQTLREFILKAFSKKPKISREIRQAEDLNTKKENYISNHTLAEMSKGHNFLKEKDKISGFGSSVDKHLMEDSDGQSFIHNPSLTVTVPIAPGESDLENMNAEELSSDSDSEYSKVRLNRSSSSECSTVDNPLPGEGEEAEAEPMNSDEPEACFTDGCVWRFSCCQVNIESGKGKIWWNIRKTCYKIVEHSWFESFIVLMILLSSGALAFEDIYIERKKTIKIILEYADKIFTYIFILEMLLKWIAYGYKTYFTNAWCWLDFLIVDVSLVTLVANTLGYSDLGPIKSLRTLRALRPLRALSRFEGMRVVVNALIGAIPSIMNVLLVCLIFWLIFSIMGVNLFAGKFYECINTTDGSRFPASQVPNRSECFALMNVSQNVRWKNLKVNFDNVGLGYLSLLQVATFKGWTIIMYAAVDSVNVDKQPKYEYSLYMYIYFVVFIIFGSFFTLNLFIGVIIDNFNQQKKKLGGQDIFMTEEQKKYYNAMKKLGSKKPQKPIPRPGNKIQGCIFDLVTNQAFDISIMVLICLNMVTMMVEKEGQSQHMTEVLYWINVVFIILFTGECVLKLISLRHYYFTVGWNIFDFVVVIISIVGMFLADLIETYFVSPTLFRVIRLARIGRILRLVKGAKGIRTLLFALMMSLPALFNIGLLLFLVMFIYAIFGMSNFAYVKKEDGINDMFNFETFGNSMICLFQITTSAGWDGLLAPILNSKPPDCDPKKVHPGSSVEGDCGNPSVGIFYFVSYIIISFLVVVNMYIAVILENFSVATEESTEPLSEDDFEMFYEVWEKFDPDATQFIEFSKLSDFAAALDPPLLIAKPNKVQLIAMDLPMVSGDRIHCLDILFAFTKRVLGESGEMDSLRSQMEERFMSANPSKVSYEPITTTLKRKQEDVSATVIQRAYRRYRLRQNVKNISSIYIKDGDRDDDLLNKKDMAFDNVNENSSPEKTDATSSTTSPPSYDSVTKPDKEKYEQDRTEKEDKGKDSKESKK
Assay type: cell-based
For `COCCOCC(=O)N[C@@H](CC(C)C)C(=O)Nc1cccc(-c2ccc(Oc3ccc(F)cc3)cc2)n1` [Compound 9, (S)-N-(6-(4-(4-fluorophenoxy)phenyl)pyridin-2-yl)-2-(2-(2-methoxyethoxy)acetamido)-4-methylpentanamide], the IC50 was 0.091 ± 0.02 µM.
Compound `CC(C)C[C@H](NC(=O)c1cccnc1)C(=O)Nc1cccc(-c2ccc(Oc3ccc(F)cc3)cc2)n1` [Compound 10, (S)-N-(1-((6-(4-(4-fluorophenoxy)phenyl)pyridin-2-yl)amino)-4-methyl-1-oxopentan-2-yl)nicotinamide] has an IC50 of 0.091 ± 0.03 µM.
Compound `CC(C)C[C@H](NC(=O)NC(C)C)C(=O)Nc1cccc(-c2ccc(Oc3ccc(F)cc3)cc2)n1` [Compound 11, (S)-N-(6-(4-(4-fluorophenoxy)phenyl)pyridin-2-yl)-2-(3-isopropylureido)-4-methylpentanamide] has an IC50 of 0.086 ± 0.02 µM.
In the case of `CS(=O)(=O)Nc1cc(Cl)cc(-c2ccc(Oc3ccc(F)cc3)cc2)n1` [Compound 15, N-(4-chloro-6-(4-(4-fluorophenoxy)phenyl)pyridin-2-yl)methanesulfonamide], the IC50 is reported as 0.26 ± 0.07 µM.
With `CS(=O)(=O)N(C[C@H](O)CO)c1cc(Cl)cc(-c2ccc(Oc3ccc(F)cc3)cc2)n1` [Compound 17, (S)-N-(4-chloro-6-(4-(4-fluorophenoxy)phenyl)pyridin-2-yl)-N-(2,3-dihydroxypropyl)methanesulfonamide] the IC50 was 0.094 ± 0.03 µM.
In the case of `NS(=O)(=O)Nc1cc(Cl)cc(-c2ccc(Oc3ccc(F)cc3)cc2)n1` [Compound 18, N-(4-chloro-6-(4-(4-fluorophenoxy)phenyl)pyridin-2-yl)sulfamide], the IC50 is reported as 1.5 ± 0.3 µM.
For `CS(=O)(=O)Nc1cc([C@H](O)CO)cc(-c2ccc(Oc3ccc(F)cc3)cc2)n1` [Compound 24, (S)-N-(4-(1,2-dihydroxyethyl)-6-(4-(4-fluorophenoxy)phenyl)pyridin-2-yl)methanesulfonamide], the IC50 was 2.9 ± 0.8 µM.
Work on `CS(=O)(=O)Nc1cccc(-c2ccc(Oc3ccc(F)cc3)cc2)n1` [Compound 27, N-(6-(4-(4-fluorophenoxy)phenyl)pyridin-2-yl)methanesulfonamide] yielded an IC50 of 0.34 ± 0.05 µM.
Work on `O=S(=O)(Nc1cccc(-c2ccc(Oc3ccc(F)cc3)cc2)n1)C1CC1` [Compound 28, N-(6-(4-(4-fluorophenoxy)phenyl)pyridin-2-yl)cyclopropane Sulfonamide] yielded an IC50 of 0.22 ± 0.07 µM.
In the case of `Cn1cnc(S(=O)(=O)Nc2cccc(-c3ccc(Oc4ccc(F)cc4)cc3)n2)c1` [Compound 29, N-(6-(4-(4-fluorophenoxy)phenyl)pyridin-2-yl)-1-methyl-1H-imidazole-4-sulfonamide], the IC50 is reported as 0.32 ± 0.05 µM.
`N[C@@H](Cc1c[nH]cn1)C(=O)Nc1cccc(-c2ccc(Oc3ccc(F)cc3)cc2)n1` [Compound 31, (S)-2-amino-N-(6-(4-(4-fluorophenoxy)phenyl)pyridin-2-yl)-3-(1H-imidazol-4-yl)propanamide] was tested, and the IC50 was 0.18 ± 0.02 µM.
`CC(=O)N1CCC(C(=O)N[C@@H](Cc2c[nH]cn2)C(=O)Nc2cccc(-c3ccc(Oc4ccc(F)cc4)cc3)n2)CC1` [Compound 34, (S)-1-acetyl-N-(1-((6-(4-(4-fluorophenoxy)phenyl)pyridin-2-yl)amino)-3-(1H-imidazol-4-yl)-1-oxopropan-2-yl)piperidine-4-carboxamide] showed an IC50 of 0.58 ± 0.05 µM.
With `COCC(=O)N[C@@H](Cc1c[nH]cn1)C(=O)Nc1cccc(-c2ccc(Oc3ccc(F)cc3)cc2)n1` [Compound 35, (S)-N-(6-(4-(4-fluorophenoxy)phenyl)pyridin-2-yl)-3-(1H-imidazol-4-yl)-2-(2-methoxyacetamido)propanamide] the IC50 was 0.13 ± 0.02 µM.
`O=C(CO)N[C@@H](Cc1c[nH]cn1)C(=O)Nc1cccc(-c2ccc(Oc3ccc(F)cc3)cc2)n1` [Compound 36, (S)-N-(6-(4-(4-fluorophenoxy)phenyl)pyridin-2-yl)-2-(2-hydroxyacetamido)-3-(1H-imidazol-4-yl)propanamide] showed an IC50 of 0.14 ± 0.01 µM.
`CC(C)(O)C(=O)N[C@@H](Cc1c[nH]cn1)C(=O)Nc1cccc(-c2ccc(Oc3ccc(F)cc3)cc2)n1` [Compound 37, (S)-N-(6-(4-(4-fluorophenoxy)phenyl)pyridin-2-yl)-2-(2-hydroxy-2-methylpropanamido)-3-(1H-imidazol-4-yl)propanamide] gave an IC50 of 0.12 ± 0.03 µM.
Compound `CC(C)(C)OC(=O)N[C@@H](CC(=O)Nc1cccc(-c2ccc(Oc3ccc(F)cc3)cc2)n1)C(N)=O` [Compound 40, (S)-tert-butyl (1-amino-4-((6-(4-(4-fluorophenoxy)phenyl)pyridin-2-yl)amino)-1,4-dioxobutan-2-yl)carbamate] has an IC50 of 0.13 ± 0.03 µM.
`CC(C)(C)OC(=O)N[C@@H](CC(N)=O)C(=O)Nc1cccc(-c2ccc(Oc3ccc(F)cc3)cc2)n1` [Compound 41, (S)-tert-butyl (4-amino-1-((6-(4-(4-fluorophenoxy)phenyl)pyridin-2-yl)amino)-1,4-dioxobutan-2-yl)carbamate] was tested, and the IC50 was 0.066 ± 0.008 µM.
With `CC(C)C[C@H](NC(=O)C1CC1)C(=O)Nc1cc([C@H](O)CO)cc(-c2ccc(Oc3ccc(F)cc3)cc2)n1` [Compound 44, N-((S)-1-((4-((S)-1,2-dihydroxyethyl)-6-(4-(4-fluorophenoxy)phenyl)pyridin-2-yl)amino)-4-methyl-1-oxopentan-2-yl)cyclopropanecarboxamide] the IC50 was 0.059 ± 0.12 µM.
Work on `CC(C)C[C@H](NC(=O)c1ccccn1)C(=O)Nc1cc([C@H](O)CO)cc(-c2ccc(Oc3ccc(F)cc3)cc2)n1` [Compound 45, N-((S)-1-((4-((S)-1,2-dihydroxyethyl)-6-(4-(4-fluorophenoxy)phenyl)pyridin-2-yl)amino)-4-methyl-1-oxopentan-2-yl)picolinamide] yielded an IC50 of 0.3 ± 0.07 µM.
For `O=C(N[C@@H](CO)C(=O)Nc1cccc(-c2ccc(Oc3ccc(F)cc3)cc2)n1)c1ccccn1` [Compound 54, Pyridine-2-carboxylic acid ((S)-1-{6-[4-(4-fluoro-phenoxy)-phenyl]-pyridin-2-ylcarbamoyl}-2-hydroxy-ethyl)-amide], the IC50 was 0.07 ± 0.02 µM.
`O=C(N[C@@H](CO)C(=O)Nc1cccc(-c2ccc(Oc3ccc(F)cc3)cc2)n1)C1CC1` [Compound 55, Cyclopropanecarboxylic acid ((S)-1-{6-[4-(4-fluoro-phenoxy)-phenyl]-pyridin-2-ylcarbamoyl}-2-hydroxy-ethyl)-amide] was tested, and the IC50 was 0.06 ± 0.006 µM.
In the case of `O=C(N[C@@H](CO)C(=O)Nc1cccc(-c2ccc(Oc3ccc(F)cc3)cc2)n1)c1ccncc1` [Compound 57, N-((S)-1-{6-[4-(4-Fluoro-phenoxy)-phenyl]-pyridin-2-ylcarbamoyl}-2-hydroxy-ethyl)-isonicotinamide], the IC50 is reported as 0.16 ± 0.03 µM.
With `Cc1cc(C(=O)N[C@@H](CO)C(=O)Nc2cccc(-c3ccc(Oc4ccc(F)cc4)cc3)n2)no1` [Compound 58, 5-Methyl-isoxazole-3-carboxylic acid ((S)-1-{6-[4-(4-fluoro-phenoxy)-phenyl]-pyridin-2-ylcarbamoyl}-2-hydroxy-ethyl)-amide] the IC50 was 0.11 ± 0.04 µM.
With `CC(C)(C)OC(=O)N[C@@H](CO)C(=O)Nc1cccc(-c2ccc(Oc3ccc(F)cc3)cc2)n1` [Compound 59, ((S)-1-{6-[4-(4-Fluoro-phenoxy)-phenyl]-pyridin-2-ylcarbamoyl}-2-hydroxy-ethyl)-carbamic acid tert-butyl ester] the IC50 was 0.31 ± 0.07 µM.
With `NC(=O)N[C@@H](CO)C(=O)Nc1cccc(-c2ccc(Oc3ccc(F)cc3)cc2)n1` [Compound 61, (S)-N-{6-[4-(4-Fluoro-phenoxy)-phenyl]-pyridin-2-yl}-3-hydroxy-2-ureido-propionamide] the IC50 was 0.12 ± 0.05 µM.
`O=C1NCCN1CCNc1cc(Cl)cc(-c2ccc(Oc3ccc(F)cc3)cc2)n1` [Compound 64, 1-(2-((4-chloro-6-(4-(4-fluorophenoxy)phenyl)pyridin-2-yl)amino)ethyl)imidazolidin-2-one] was tested, and the IC50 was 0.12 ± 0.01 µM.
`O=C(Nc1cccc(-c2ccc(Oc3ccc(C(F)(F)F)cc3)cc2)n1)C(O)CO` (stereo not shown) [Compound 76, 2,3-dihydroxy-N-(6-(4-(4-(trifluoromethyl)phenoxy)phenyl)pyridin-2-yl)propanamide] was tested, and the IC50 was over 20 µM.
With `CCC(=O)N[C@@H](Cc1cn(C)cn1)C(=O)Nc1cccc(-c2ccc(Oc3ccc(F)cc3)cc2)n1` [Compound 81, (S)-N-(6-(4-(4-fluorophenoxy)phenyl)pyridin-2-yl)-3-(1-methyl-1H-imidazol-4-yl)-2-propionamidopropanamide] the IC50 was 0.064 ± 0.01 µM.
`CC(C)C(=O)N[C@@H](Cc1cn(C)cn1)C(=O)Nc1cccc(-c2ccc(Oc3ccc(F)cc3)cc2)n1` [Compound 82, (S)-N-(6-(4-(4-fluorophenoxy)phenyl)pyridin-2-yl)-2-isobutyramido-3-(1-methyl-1H-imidazol-4-yl)propanamide] gave an IC50 of 0.046 ± 0.005 µM.
In the case of `Cn1cnc(C[C@H](NC(=O)C(C)(C)C)C(=O)Nc2cccc(-c3ccc(Oc4ccc(F)cc4)cc3)n2)c1` [Compound 83, (S)-N-(6-(4-(4-fluorophenoxy)phenyl)pyridin-2-yl)-3-(1-methyl-1H-imidazol-4-yl)-2-pivalamidopropanamide], the IC50 is reported as 0.02 ± 0.002 µM.
Work on `CC(=O)N[C@@H](Cc1cn(C)cn1)C(=O)Nc1cc(-c2ccc(Oc3ccc(F)cc3)cc2)ccn1` [Compound 84, (S)-2-acetamido-N-(4-(4-(4-fluorophenoxy)phenyl)pyridin-2-yl)-3-(1-methyl-1H-imidazol-4-yl)propanamide] yielded an IC50 of 0.29 ± 0.025 µM.
With `Cn1cnc(C[C@H](NC(=O)CC(F)(F)F)C(=O)Nc2cccc(-c3ccc(Oc4ccc(F)cc4)cc3)n2)c1` [Compound 86, (S)-3,3,3-trifluoro-N-(1-((6-(4-(4-fluorophenoxy)phenyl)pyridin-2-yl)amino)-3-(1-methyl-1H-imidazol-4-yl)-1-oxopropan-2-yl)propanamide] the IC50 was 0.084 ± 0.007 µM.

Same assay, conditions: recombinant Nav1.7/HEK293 cells; CoroNa Green sodium dye; veratridine + scorpion venom agonists; ± SEM
In the case of `Cn1cnc(S(=O)(=O)Nc2cc([C@H](O)CO)cc(-c3ccc(Oc4ccc(F)cc4)cc3)n2)c1` [Compound 26, (S)-N-(4-(1,2-dihydroxyethyl)-6-(4-(4-fluorophenoxy)phenyl)pyridin-2-yl)-1-methyl-1H-imidazole-4-sulfonamide], the IC50 is reported as over 20 µM.
Compound `Nc1nc(O)cc(C(=O)Nc2cccc(-c3ccc(Oc4ccc(F)cc4)cc3)n2)n1` [Compound 65, 2-amino-N-(6-(4-(4-fluorophenoxy)phenyl)pyridin-2-yl)-6-hydroxypyrimidine-4-carboxamide] has an IC50 of over 20 µM.

Reference: patent US9656959B2, “Substituted pyridines as sodium channel blockers” (Purdue Pharma L.P., priority 2010, dated 2017)
